Measured values from patent US9227921B2, “Salts and polymorphs of a tetracycline compound” (Paratek Pharmaceuticals, Inc., priority 2008, dated 2016).
Blank lines part the entries; values can stand above or below the compound they belong to.

Columns and labels:
Type in all cases: physicochemical
[1] = Temperature and moisture stability study (HPLC impurity profile)
Method: A stability study was conducted on tosylate salt and mesylate salt of Compound 1, by monitoring changes in the high performance liquid chromatography (HPLC) impurity profiles for each salt when exposed to various temperatures and/or humidity conditions. Each sample was placed in a closed container and exposed to three controlled environments: refrigerated (5° C.), 20° C. and 60% relative humidity, and 40° C. and 75% relative humidity. […] The stability study of the crystalline tosylate salt was continued.
Samples were analyzed by the following reversed-phase HPLC impurity profile method at time points 0, 1, 2, 4 weeks (Table 7) and 3 months (Table 8) for the tosylate salt; and 0, 1 and 2 weeks for the mesylate salt (Table 9).
(§1) Reversed-phase HPLC analysis was conducted using a SYMMETRY SHIELD RP18 column (4.6×250 mm, 5 µm particle size), although analysis using a similar or equivalent column would be expected to yield similar results. The mobile phase components were 0.01 M ammonium acetate in water at pH 3.3 (A) and acetonitrile (B). The mobile phase composition was a gradient that increased from 6% to 15% B in five minutes, held at 15% B for 15 minutes, increased from 15% to 60% B in ten minutes, then from 60% to 90% B in two minutes, and then the system was re-equilibrated at 6% B for four minutes. The flow rate was 1.0 mL/minute, and the injection volume was 10.0 μL. The column temperature was maintained at 30° C. Detection was by ultraviolet light (UV) at 280 nm. The retention time for Compound 1 was approximately 15.7 minutes. The sample solution was prepared in mobile phase A to a final concentration of 2.0 mg/mL.

[2] = Photostability study (HPLC impurity profile)
Method: as §1
A photostability study was conducted on the tosylate salt of Compound 1. Two samples were prepared in clear glass Petri dishes. One sample was wrapped in aluminum foil to serve as a control sample. Both samples were placed in the ES 2000 Environmental Light 10 Chamber and exposed to 12 kilolux of cool white fluorescent light for a total of 47 hours.

[3] = Solubility of crystalline tosylate salt (excess solids, HPLC of supernatant); settings: for Solubility: ambient temperature, two hours
Method: (§2) The solubilities were determined by mixing excess solids with solvent, at ambient temperature for two hours, followed by filtration of the supernatant. The supernatant concentration was determined by high-performance liquid chromatography (HPLC). […] The pH of 122.1 mg of the subject crystalline tosylate salt in 1.0 mL of water was determined to be 5.70.

[4] = Hygroscopicity by symmetric vapor sorption analyzer; settings: 95% RH, 25.0° C.
Method: The hygroscopicity of the subject crystalline tosylate salt was determined using a symmetric vapor sorption analyzer, and reported as wt % gained as a function of percent relative humidity (% RH) from 5% to 95% to 1%, at 5% intervals at 25.0° C. A maximum weight gain of 12 wt % at 95% RH, with slight hysteresis upon desorption, was observed, and a 2 wt % loss due to IPA was observed.

[5] = Water content and room temperature stability of crystalline tosylate salt
Method: Upon drying, water content in the crystalline tosylate salt of Compound 1 was calculated to be 0.5%. After standing at room temperature for 24 hours, this value increased to 5%. In contrast to the amorphous Compound 1, the crystalline tosylate salt of Compound 1 was stable for weeks and months at room temperature, maintaining a water content of approximately 5%.

[6] = pH of crystalline tosylate salt in water; settings: 122.1 mg in 1.0 mL of water
Method: as §2

[7] = Relative stabilities of the polymorphic forms (maturation / slurry, XRPD)
Method: The relative stabilities of the polymorphic forms of Compound 1 were analyzed. For example, form 1 tosylate salt was subjected to a maturation experiment for 24 hours in either IPA or methyl pentanone, seeded with either form 2 or form 3 tosylate salt. […] A slurry of a 50:50 mixture of form 1 and form 3 were analyzed in IPA for 18 hours at 0° C., 25° C., 40° C., and 60° C., as shown in FIG. 7.

[8] = Control sample wrapped in aluminum foil, 47 hours in light chamber
[9] = Exposed to 12 kilolux cool white fluorescent light, 47 hours
[10] = room temperature, weeks and months

4-keto compound RRT = 1.57 ([1]; 0 month, 20° C. & 60% RH): 0.05%
Beta-epimer RRT = 1.26 ([1]; 0 month, 20° C. & 60% RH): 1.76%
Total impurity ([1]; 0 month, 20° C. & 60% RH): 2.12%
4-keto compound RRT = 1.57 ([1]; 0 month, 40° C. & 75% RH): 0.05%
Beta-epimer RRT = 1.26 ([1]; 0 month, 40° C. & 75% RH): 1.76%
Total impurity ([1]; 0 month, 40° C. & 75% RH): 2.12%
Compound 1 ([1]; 1 week, 5° C.): 98.5%
RRT 0.52 ([1]; 1 week, 5° C.): 0.09%
RRT 1.19 ([1]; 1 week, 5° C.): 0.21%
RRT 1.26 (beta-epimer) ([1]; 1 week, 5° C.): 1.1%
RRT 1.77 ([1]; 1 week, 5° C.): 0.11%
Total Impurities ([1]; 1 week, 5° C.): 1.51
Compound 1 ([1]; 1 week, 20° C. & 60% RH): 98.3%
RRT 0.52 ([1]; 1 week, 20° C. & 60% RH): 0.09%
RRT 1.19 ([1]; 1 week, 20° C. & 60% RH): 0.21%
RRT 1.26 (beta-epimer) ([1]; 1 week, 20° C. & 60% RH): 1.2%
RRT 1.77 ([1]; 1 week, 20° C. & 60% RH): 0.12%
Total Impurities ([1]; 1 week, 20° C. & 60% RH): 1.63
Compound 1 ([1]; 1 week, 40° C. & 75% RH): 98.2%
RRT 0.52 ([1]; 1 week, 40° C. & 75% RH): 0.09%
RRT 0.77 ([1]; 1 week, 40° C. & 75% RH): 0.05%
RRT 1.19 ([1]; 1 week, 40° C. & 75% RH): 0.21%
RRT 1.26 (beta-epimer) ([1]; 1 week, 40° C. & 75% RH): 1.3%
RRT 1.77 ([1]; 1 week, 40° C. & 75% RH): 0.14%
Total Impurities ([1]; 1 week, 40° C. & 75% RH): 1.80
Compound 1 ([1]; 2 weeks, 5° C.): 98.4%
RRT 0.52 ([1]; 2 weeks, 5° C.): 0.08%
RRT 0.93 ([1]; 2 weeks, 5° C.): 0.08%
RRT 1.19 ([1]; 2 weeks, 5° C.): 0.24%
RRT 1.26 (beta-epimer) ([1]; 2 weeks, 5° C.): 1.1%
RRT 1.77 ([1]; 2 weeks, 5° C.): 0.12%
Total Impurities ([1]; 2 weeks, 5° C.): 1.62
Compound 1 ([1]; 2 weeks, 20° C. & 60% RH): 98.4%
RRT 0.52 ([1]; 2 weeks, 20° C. & 60% RH): 0.08%
RRT 0.93 ([1]; 2 weeks, 20° C. & 60% RH): 0.08%
RRT 1.19 ([1]; 2 weeks, 20° C. & 60% RH): 0.25%
RRT 1.26 (beta-epimer) ([1]; 2 weeks, 20° C. & 60% RH): 1.1%
RRT 1.77 ([1]; 2 weeks, 20° C. & 60% RH): 0.15%
Total Impurities ([1]; 2 weeks, 20° C. & 60% RH): 1.66
Compound 1 ([1]; 2 weeks, 40° C. & 75% RH): 98.3%
RRT 0.52 ([1]; 2 weeks, 40° C. & 75% RH): 0.08%
RRT 0.93 ([1]; 2 weeks, 40° C. & 75% RH): 0.09%
RRT 1.19 ([1]; 2 weeks, 40° C. & 75% RH): 0.25%
RRT 1.26 (beta-epimer) ([1]; 2 weeks, 40° C. & 75% RH): 1.1%
RRT 1.77 ([1]; 2 weeks, 40° C. & 75% RH): 0.16%
Total Impurities ([1]; 2 weeks, 40° C. & 75% RH): 1.68
4-keto compound RRT = 1.57 ([1]; 3 month, 20° C. & 60% RH): 0.10%
Beta-epimer RRT = 1.26 ([1]; 3 month, 20° C. & 60% RH): 1.74%
M-2 impurity RRT = 0.84 ([1]; 3 month, 20° C. & 60% RH): 0.18%
Total impurity ([1]; 3 month, 20° C. & 60% RH): 2.86%
4-keto compound RRT = 1.57 ([1]; 3 month, 40° C. & 75% RH): 0.14%
Beta-epimer RRT = 1.26 ([1]; 3 month, 40° C. & 75% RH): 1.66%
M-2 impurity RRT = 0.84 ([1]; 3 month, 40° C. & 75% RH): 0.31%
Total impurity ([1]; 3 month, 40° C. & 75% RH): 3.12%
Compound 1 ([1]; 4 weeks, 5° C.): 98.3%
RRT 0.52 ([1]; 4 weeks, 5° C.): 0.09%
RRT 0.77 ([1]; 4 weeks, 5° C.): 0.08%
RRT 0.93 ([1]; 4 weeks, 5° C.): 0.07%
RRT 1.19 ([1]; 4 weeks, 5° C.): 0.23%
RRT 1.26 (beta-epimer) ([1]; 4 weeks, 5° C.): 1.0%
RRT 1.77 ([1]; 4 weeks, 5° C.): 0.14%
Total Impurities ([1]; 4 weeks, 5° C.): 1.61
Compound 1 ([1]; 4 weeks, 20° C. & 60% RH): 98.2%
RRT 0.52 ([1]; 4 weeks, 20° C. & 60% RH): 0.10%
RRT 0.77 ([1]; 4 weeks, 20° C. & 60% RH): 0.10%
RRT 0.93 ([1]; 4 weeks, 20° C. & 60% RH): 0.12%
RRT 1.19 ([1]; 4 weeks, 20° C. & 60% RH): 0.24%
RRT 1.26 (beta-epimer) ([1]; 4 weeks, 20° C. & 60% RH): 1.1%
RRT 1.77 ([1]; 4 weeks, 20° C. & 60% RH): 0.18%
Total Impurities ([1]; 4 weeks, 20° C. & 60% RH): 1.84
Compound 1 ([1]; 4 weeks, 40° C. & 75% RH): 98.1%
RRT 0.52 ([1]; 4 weeks, 40° C. & 75% RH): 0.10%
RRT 0.77 ([1]; 4 weeks, 40° C. & 75% RH): 0.17%
RRT 0.93 ([1]; 4 weeks, 40° C. & 75% RH): 0.13%
RRT 1.19 ([1]; 4 weeks, 40° C. & 75% RH): 0.26%
RRT 1.26 (beta-epimer) ([1]; 4 weeks, 40° C. & 75% RH): 1.1%
RRT 1.77 ([1]; 4 weeks, 40° C. & 75% RH): 0.20%
Total Impurities ([1]; 4 weeks, 40° C. & 75% RH): 1.96
Compound 1 ([1]; Initial): 98.4%
RRT 0.52 ([1]; Initial): 0.06%
RRT 1.19 ([1]; Initial): 0.24%
RRT 1.26 (beta-epimer) ([1]; Initial): 1.2%
RRT 1.77 ([1]; Initial): 0.10%
Total Impurities ([1]; Initial): 1.60
relative stability among crystalline forms ([1]; after two weeks, 5° C., 20° C. & 60% RH, 40° C. & 75% RH): most stable crystalline form
storage stability ([1]; refrigerated and/or 20° C. & 60% RH, at least four weeks): stable
Compound 1 [2, 8]: 98.2%
RRT 0.52 [2, 8]: 0.06%
RRT 0.77 [2, 8]: 0.08%
RRT 0.93 [2, 8]: 0.12%
RRT 1.19 [2, 8]: 0.26%
RRT 1.26 [2, 8]: 1.2%
RRT 1.77 [2, 8]: 0.16%
Compound 1 [2, 9]: 98.2%
RRT 0.52 [2, 9]: 0.06%
RRT 0.77 [2, 9]: 0.09%
RRT 0.93 [2, 9]: 0.13%
RRT 1.19 [2, 9]: 0.26%
RRT 1.26 [2, 9]: 1.1%
RRT 1.77 [2, 9]: 0.16%
Equilibration in water (appearance) ([3]; 56.8 mg in 0.5 mL water): clear solutions
Equilibration in water (appearance) ([3]; 122.1 mg in 1.0 mL water): clear solutions
Solubility ([3]; Acetonitrile): 5.9 mg/mL
Solubility ([3]; IPA): 5.8 mg/mL
Solubility ([3]; Methanol): 86.1 mg/mL
Solubility ([3]; Water): >100 mg/mL
maximum weight gain (hygroscopicity) [4]: 12 wt %
water content ([5]; after standing at room temperature for 24 hours): 5%
stability at room temperature [5, 10]: stable
water content maintained [5, 10]: approximately 5%
water content ([5]; upon drying): 0.5%
pH [6]: 5.70
SMILES: CN(C)c1cc(CNCC(C)(C)C)c(O)c2c1CC1CC3C(N(C)C)C(O)=C(C(N)=O)C(=O)C3(O)C(O)=C1C2=O.Cc1ccc(S(=O)(=O)O)cc1 (stereo not drawn) [tosylate salt of Compound 1]

change of polymorphic form in slurry ([7]; 50:50 mixture of form 1 and form 3 in IPA, 18 hours at 0° C., 25° C., 40° C., 60° C.): no change of form 1 into form 3
change of polymorphic form on maturation ([7]; 24 hours in IPA or methyl pentanone, seeded with form 2 or form 3 tosylate salt): no change of form 1 into form 2 or 3
SMILES: CN(C)c1cc(CNCC(C)(C)C)c(O)c2c1CC1CC3C(N(C)C)C(O)=C(C(N)=O)C(=O)C3(O)C(O)=C1C2=O.Cc1ccc(S(=O)(=O)O)cc1 (stereo not drawn) [form 1 tosylate salt]
